Entries after “also recorded” stand apart in the source; their conditions may differ.
System: HPCs isolated from wild type, E4bp4 knockout and heterozygous mice
Assay: NK cell production from HPCs isolated from WT, E4bp4 Het and E4bp4 KO mice
Format: cell-based, mouse
Description: FIG. 7: HPCs isolated from either wild type (WT), E4bp4 knockout (KO) or heterozygous (Het) mice were cultured with the addition of 5 or 10 μM SR8278. At Day 9, percentage of NK cells was quantified using flow cytometry. Graph showing relative mature mouse NK cell (NK1.1^+ CD3^−) production compared to the ‘No drug’ control in experiments with (A) WT, (B) Het and (C) E4bp4 KO mice. (D) Representative flow cytometry results with percentage of NK cells shown for the addition of 10 μM SR8278. Results were averaged from two experiments with four repeats each and the error bars represent the mean+SD. Asterisks indicate significant differences from the two annotated results (* is P≤0.01 and ** is P≤0.001) based on Mann-Whitney test.
Following the experiment with GSK4112, it was predicted that SR8278 acts through the pathway involving REV-ERB and E4bp4. […] Cell cultures were performed as previously (FIG. 3), where SR8278 was added on Day 2 of the culture and NK cell production was measured by flow cytometry. […]
Cells to be analysed by flow cytometry were passed through 40 μm cell strainers to remove clumps and washed with PBS buffer, centrifuged at 800 g for 2 minutes and resuspended in 100 μl fluorescent activated cell sorting (FACS) buffer (PBS plus 1% BSA) with appropriate fluorochrome conjugated antibodies at a dilution of 1 in 300. […]

For `CCOC(=O)C1Cc2ccccc2CN1C(=O)c1ccc(SC)s1` (centres unmarked) [SR8278, 1,2,3,4-Tetrahydro-2-[[5-(methylthio)-2-thienyl]carbonyl]-3-isoquinolinecarboxylic acid ethyl ester], the “percentage of NK cells produced” value (HPCs from E4bp4 KO mice, regardless of concentration) was “absent of NK cells; also recorded: no effect” and the “percentage of NK cells produced compared to 'No drug' control” value (HPCs from WT mice, 5 μM and 10 μM added Day 2) was “largest significant increase”.
